Key:
[1] = Therapeutical effect on olive oil-induced triglyceride hyperlipidemia models; assay type: in vivo; conditions: once a day for one week, SD rats, 2 h after olive oil
Description: Test of Therapeutical Effect on Olive Oil-Induced Triglyceride Hyperlipidemia Models
To conduct this test, 6-week-old SD rats (purchased from Charles River Japan) were used.
According to the body weight of the test rats when they were 5 weeks old, the test rats were divided into test groups and a control group with 6 rats per group.
A predetermined amount of each compound prepared in the Examples was measured and placed in an agate mortar. While 5% aqueous gum arabic solution was gradually introduced to the mortar, the compound was uniformly ground and suspended. Test samples were prepared by further adding 5% aqueous gum arabic solution gradually. Subsequently, these test samples were subjected to ultrasonic washing for 10 minutes to homogenize. Test samples were prepared as and when necessary.
The rats of the test groups were orally administered with the compounds of the invention such that rats received the compounds in an amount of 10, 30, or 100 mg/kg. The compounds of the invention were formulated as 5% gum arabic suspensions as described above.
The rats of the control group were orally administered with 5% aqueous gum arabic solution (not containing the compounds of the invention) in an amount of 5 ml/kg body weight. Administration was conducted once a day continuously for one week at a specific time of day after the rats reached 6 weeks of age. This test was performed under non-fasting conditions (rats had free access to feed and water), and the rats were fasted after the final administration of the compounds or 5% aqueous gum arabic solution.
Two hours after the final administration, olive oil was orally administered to the rats from both groups in an amount of 3 ml/kg body weight.
Two hours after the olive oil administration, blood was collected from the abdominal aorta of the rats of the respective groups using a heparinized syringe. The plasma was centrifugally separated from the blood at a temperature of 4° C., and the triglyceride level of the plasma was measured. A Hitachi 7170 automatic analyzer was used as the measuring instrument. Using the values measured from the test groups and control group, the decrease (%) in plasma triglyceride level was calculated according to the following equation: Decrease (%) in plasma triglyceride concentration=(1−E/C)×100 wherein E represents the average plasma triglyceride level in each test group; and C represents the average plasma triglyceride level in the control group.

[2] = test system: human LPL mRNA; experiment: Test for increase in LPL mRNA expression (luciferase assay, HTB-92/p387/p383 cell line); assay type: cell-based; conditions: 120 h, HTB-92/p387/p383 cells, 5 days
Description: Pharmacological Test 1 Test for Increase in LPL mRNA Expression
A luciferase assay was employed to simply and quickly detect an increase in human LPL mRNA. The principle of the assay is as follows:
Luciferase emits light when reacted with luciferine (substrate). The expression of LPL mRNA is controlled by 5′-UTR and 3′-UTR (promoter regions) of the LPL gene. By introducing the promoter regions of the LPL gene into a commercially available plasmid (for example, that produced by Clonetics Corp.) to produce a plasmid (reporter plasmid) that stably expresses luciferase in human cells, such a plasmid expresses luciferase only under conditions in which LPL mRNA can increase. Therefore, when the substrate is introduced to the expression system and the amount of luciferase expression (luciferase activity) is quantified as the extent of chemiluminescence, the amount of LPL mRNA expression can be estimated.
The test herein was performed as follows: Using a plasmid for the luciferase assay manufactured by Clontech, wherein human LPL 5′-UTR (Enerback, S., et al., Mol. Cell. Biol. 12 (10) (1992): 4622-4633) and 3′-UTR (Wion, K. L., et al., Science 235 (1987): 4796, 1638-1641) had been inserted, human-derived liposarcoma cell line SW872 (ATCC Accession No. HTB-92) was transformed to prepare an HTB-92/p387/p383 cell line, which stably expresses luciferase.
This HTB-92/p387/p383 cell line was introduced into a 225 cm^2 culture flask furnished with a culture medium and cultured at 37° C. in the absence of CO2 until reaching confluence. Leibovitz's L-15 culture medium (containing 10% FBS, 1% GlutaMaxII, 10 μg/ml streptomycin, 1 μg/ml puromycin, 250 μg/ml hygromycin B) was used as the culture medium. After reaching confluence, the cells were collected, plated on 384-well plates to have 20000 cells/well, and cultured with 50 μl/well of the culture medium under the same conditions as above (37° C., absence of CO2). After 3 days of culturing, the culture medium was replaced by 50 μl/well phenol-red-free DMEM (containing 10% FBS, 1% GlutaMax, 10 U/ml penicillin, 10 μg/ml streptomycin, 1 μg/ml puromycin, 250 μg/ml hygromycin, 1 μM dexamethasone, 0.5 μM IBMX; differentiation medium), and the cells were cultured for 5 more days at 37° C. in the presence of CO2 to differentiate.
Furthermore, the culture medium was replaced by a 50 μl/well medium containing a compound of the invention (compound prepared in an Example) as a test substance wherein the compound had been conditioned with DMSO to a specific concentration selected from 10^−4 M to 3×10^−10M. The cells were cultured for 5 days at 37° C. in the presence of CO2.
After 5 days of culturing, a luciferase substrate solution (manufactured by Promega Corporation) was introduced to each well in an amount of 30 μl/well. The cells were left to stand 10 minutes at room temperature, and luciferase activities were measured by a luminometer (a microplate scintilltion counter; The Wallac MicroBeta Trilux, manufactured by Perkin Elmer, Inc.).
Cells that had been cultured and differentiated in a differentiation medium prepared by adding 0.1% DMSO to the above-mentioned DMEM medium (differentiation medium) not containing phenol red were used as a control (i.e., cultured and differentiated for 5 days and then stimulated for 5 days). The luciferase activity of these control cells were measured as above. The EC50 value (the concentration of test substance that can increase the amount of LPL mRNA expression over the control by 50%, unit: M) was calculated based on the straight line obtained by plotting the results of the tests performed using the test substances at varying concentrations. The maximum induction (Max. Ind. values) was calculated according to the following equation: Max. Ind. Value=Lt/Lc wherein Lt represents the maximum luciferase activity occurred in response to test substance stimulation; and Lc represents the value indicating the luciferase activity of the control.

[3] = Anti-obesity test using Zucker fatty rats; assay type: in vivo; conditions: 100 mg/kg oral, once a day over 4 weeks, relative to control group
Description: Anti-Obesity Test Using Zucker Fatty Rats
Zucker fatty rats are obese rats discovered by Zucker et al., in 1961 as mutants among 13 M rats, which are a hybrid between 13C and M rats. These rats (fa/fa) start to appear distinctly obese from normal broods around the age of 3 weeks. As they age, the weight difference between the fatty rats and normal rats increases. Zucker fatty rats are currently kept by a variety of organizations as simple obesity models, and are readily obtainable.
This test was performed using this rat model to evaluate the anti-obesity action of the compounds of the invention. The preparation method of test samples and the test procedures are described below:
The test samples were prepared in the same manner as in Test Example 2.
Zucker fatty rats and lean rats (both from Charles River Japan) were purchased at the age of 5 weeks. They were divided into groups (10 rats per group) according to body weight when they reached 6 weeks old. After acclimatization, the administration of test samples was initiated when the rats reached 8 weeks old. Test samples were orally administered using an oral gavage so that the compounds of the invention contained in the test samples were given in an amount of 100 mg/kg body weight (test sample dosage: 5 ml/kg body weight). The test samples were administered once a day over 4 weeks at a specific time of day.
As a control, a group of rats were administered with the same amount of 5% aqueous gum arabic solution (5 ml/kg body weight) instead of the test samples.
The rats of all groups were weighed on the last day of administration. The average body weight of the rats of each test group was compared with the average body weight (standard weight) of the rats of the control group to obtain the weight variations (differences). The weight differences were expressed as percentages in relation to the standard weight. The values thus calculated are referred to as “weight change %”. When a weight difference is negative relative to the standard weight, weight change % is shown with “−” (minus).
During the test period, the rats of the respective groups had free access to rat feed (“CRF-1”, manufactured by Oriental Yeast, Co., Ltd.) and water (tap water).

[4] = test system: LPL; experiment: Test for LPL activity-increasing effect in normal rats (skeletal muscle LPL activity); assay type: in vivo; conditions: every day for 1 week, SD rats, soleus muscle, 4 h after administration
Description: Test for LPL Activity-Increasing Effect in Normal Rats
6-week-old SD rats (purchased from Charles River Japan) were used as subjects. The rats were divided into groups according to body weight at the age of 5 weeks. The rats in each test group were orally administered with a 5% gum arabic suspension in an amount of 5 ml/kg of body weight, the suspension containing the test compound of the invention in such an amount that the dose of the compound of the invention became 30 mg/kg of body weight in one group and 100 mg/kg of body weight in another group. The rats in a control group were orally administered with a 5% gum arabic suspension (not containing the test compound of the invention) in an amount of 5 ml/kg of body weight. Each sample suspension was orally administered every day at a specific time of day for 1 week starting when the rats reached the age of 6 weeks.
Four hours after the administration of the sample suspension, skeletal muscle tissues of the rats were collected, then freeze-clamped and stored under liquid nitrogen. LPL activity in the skeletal muscle tissues was measured by the following method.
The soleus muscle was homogenized in a chilled solution of 0.05 mol/L NH4OH—NH4Cl buffer (pH 8.5) containing 0.5 U/mL heparin at 1 mL/100 mg of tissue wet weight. After standing on ice for 60 min with vigorous mixing at intervals of 15 min, the homogenate was centrifuged at 3000 rpm and 4° C. for 10 min and the supernatant was separated.
The substrate solution was prepared by mixing 2 μCi of glycerol tri[1-^14C]oleate, 0.133 g of unlabeled triolein, 0.9 mL of 1% Triton X-100, and 0.9 mL of 4% bovine serum albumin. in 0.2 mol/L Tris-HCl buffer (pH 8.6) and 10.2 mL of 0.2 mol/L Tris-HCl buffer (pH 8.6). The mixture was emulsified by sonication on ice for 3 min.
In a glass test tube, 0.1 mL of the tissue extract, 0.05 mL of heat-inactivated rat serum and 0.15 mL of 4% bovine serum albumin in 0.2 mol/L Tris-HCl buffer (pH 7.4) were mixed. Enzyme reaction was started by adding 0.2 mL of the substrate solution and was carried out for 30 min. at 37° C.
The reaction was stopped by addition of 2 mL of 1.5 mol/L H2SO4/2-propanol (1:40, v/v), and 1 mL of distilled water and 3 mL of hexane were added into the test tube. After vigorously shaking for 10 min. at room temperature, the test tube was centrifuged for 10 min. at 3000 rpm.
The upper layer (3.5 mL) was collected in a new test tube and mixed with 1 mL of 0.1 mol/L KOH.
The test tube was vigorously shaken for 10 min. at room temperature and then centrifuged for 10 min. at 3000 rpm.
After removing the upper layer, 1 mL of the lower layer (water phase) was transferred into a vial for counting, neutralized with 50 μL of 1.3 mol/L HCl and mixed with 4 mL of scintillator. The radioactivity was measured using a liquid scintillation counter.
The LPL activity increase (%) was calculated from the measured values of LPL activity in the control group and test groups according to the following formula: LPL activity increase (%)=(Test group average value)/(Control group average value)×100−100

EC50 ([2]; concentration that increases LPL mRNA expression over the control by 50%) [µM]	melting point [°C]	Structure (SMILES)	Decrease in plasma triglyceride level (%) ([1]; 10 mg/kg oral)	Decrease in plasma triglyceride level (%) ([1]; 30 mg/kg oral)	Decrease in plasma triglyceride level (%) ([1]; 100 mg/kg oral)	maximal fold induction ([2]; Max. Ind. Value=Lt/Lc, maximum luciferase activity over control)	Weight Change (%) [3] [%]	Increase of skeletal muscle LPL activity compared to control (%) ([4]; 30 mg/kg oral)	Increase of skeletal muscle LPL activity compared to control (%) ([4]; 100 mg/kg oral)
6.3	128 to 129.5	COc1cc(-c2cn3ccccc3n2)ccc1OCc1ccccc1 [Example 1, 2-(4-benzyloxy-3-methoxyphenyl)imidazo[1,2-a]pyridine]	26	50	76	3	−8	–	–
–	126 to 128	COc1cc(-c2cn3ccsc3n2)ccc1OCc1ccc(Cl)cc1 [Example 23, 6-[4-(4-chlorobenzyloxy)-3-methoxyphenyl]imidazo[2,1-b]thiazole]	66	78	77	–	–	18	15

Structure (SMILES)	EC50 ([2]; concentration that increases LPL mRNA expression over the control by 50%) [µM]	melting point [°C]	Decrease in plasma triglyceride level (%) ([1]; 10 mg/kg oral)	Decrease in plasma triglyceride level (%) ([1]; 30 mg/kg oral)	Decrease in plasma triglyceride level (%) ([1]; 100 mg/kg oral)	maximal fold induction ([2]; Max. Ind. Value=Lt/Lc, maximum luciferase activity over control)	Weight Change (%) [3] [%]	Increase of skeletal muscle LPL activity compared to control (%) ([4]; 30 mg/kg oral)	Increase of skeletal muscle LPL activity compared to control (%) ([4]; 100 mg/kg oral)
COc1cc(-c2c[nH]c(-c3ccc(C(F)(F)F)cc3)n2)ccc1OCc1ccccc1.Cl [Example 95, 4-(4-benzyloxy-3-methoxyphenyl)-2-(4-trifluoromethylphenyl)imidazole]	–	247 to 249	28	65	81	–	−15	13	25

— patent publication US8895599B2, “Lipoprotein lipase-activating compositions comprising benzene derivates” (Otsuka Pharmaceutical Factory, Inc., priority 2008, dated 2014)
